Experimental data published in patent publication US6384028B1, “N-acylpiperidinylcarbonylaminocarboxylic acids and their use as glycoprotein IIb/IIIa antagonists and fibrinogen-blood platelets binding inhibitors” (Fujisawa Pharmaceutical Co., Ltd., priority 1995, dated 2002).
Where a name gives a salt, the structure may show the parent alone.

Tested on: platelet aggregation induced by ADP in platelet rich plasma (PRP) prepared from human blood
Experiment: Effect on platelet aggregation induced by adenosine diphosphate (ADP)
Type: cell-based
Conditions: 2 min, 3×10^8 platelets/ml, drug stirred for 2 minutes at 37° C., ADP final 2.5 μM, aggregometer
Protocol: Test 1: Effect on Platelet Aggregation Induced by Adenosine Diphosphate (ADP)
Platelet rich plasma (PRP) which contains 3×10^8 platelets/ml was prepared from human blood. To the 225 μl of PRP, 25 μl of drug solution* was added, and then stirred for 2 minutes at 37° C. To the solution 5 μl of ADP (final 2.5 μM) was added as an aggregation inducer. Aggregation was measured by using an aggregometer (NBS HEMA-TRACER 801). Activity of inhibitor (test compound) was expressed as IC50 value i.e. dose required for […] inhibition of platelet aggregation.
Drug solution* - - - Test compound was dissolved in water.

Compound: O=C(O)C[C@@H](CCc1ccccc1)NC(=O)[C@@H]1CCCN(C(=O)/C=C/C2CCNCC2)C1 [Example 25, N-[(R)-1-[3-(4-Piperidyl)-(E)-acryloyl]-3-piperidylcarbonyl]-3(R)-phenethyl-β-alanine Hydrochloride]
- IC50: 0.085 µM
